Measurements reported in publication PMC4505686 (ACS Chemical Neuroscience, 2015).
Residue numbers refer to the chain shown, from its start.

What was measured:
[1] = target: 5-HT binding protein (5-HTBP), an acetylcholine binding protein (AChBP) from Aplysia californica engineered to bind 5-HT (Aplysia californica); assay: crystal structure; 5-HTBP at 6 mg/mL mixed with 5 mM varenicline; space group P4(1)2(1)2; 2.3 Å; one pentamer per asymmetric unit
[2] = target: T1, 5-HT3 receptor (5-HT3A) (Homo sapiens, UniProt P46098, Y89A); assay: membrane potential dye fluorescence, FlexStation, transfected HEK293 cells; type: cell-based; conditions: read-out: varenicline EC50
T1 construct: gene HTR3A; full-length cDNA in pcDNA3.1, transiently expressed in HEK293 cells; homopentamer (also in Xenopus oocytes)
T1 sequence (P46098 24-478 Y89A): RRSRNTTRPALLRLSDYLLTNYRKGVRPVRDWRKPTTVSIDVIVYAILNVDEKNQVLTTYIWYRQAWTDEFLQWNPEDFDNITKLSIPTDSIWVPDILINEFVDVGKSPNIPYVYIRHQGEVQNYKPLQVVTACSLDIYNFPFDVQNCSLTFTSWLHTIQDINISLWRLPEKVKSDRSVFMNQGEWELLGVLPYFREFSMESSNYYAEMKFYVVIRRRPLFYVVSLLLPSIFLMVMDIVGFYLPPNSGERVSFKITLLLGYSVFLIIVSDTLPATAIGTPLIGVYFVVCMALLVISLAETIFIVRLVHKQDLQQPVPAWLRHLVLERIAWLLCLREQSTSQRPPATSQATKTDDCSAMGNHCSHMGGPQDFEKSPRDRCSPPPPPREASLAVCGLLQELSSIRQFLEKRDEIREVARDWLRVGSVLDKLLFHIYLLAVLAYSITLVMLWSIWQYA

[3] = target: 5-HTBP (Aplysia californica, UniProt Q8WSF8, Q74R/S111E/V159L/K160T); assay: X-ray crystal structure, […] Å; type: binding; conditions: co-crystallised, 5 mM varenicline (tartrate) with 6 mg/mL protein; orthosteric site, all five sites
[4] = target: T2, 5-HT3 receptor (5-HT3A) (Homo sapiens, UniProt P46098, Y148A); assay: membrane potential dye fluorescence, FlexStation, transfected HEK293 cells; type: cell-based; conditions: read-out: varenicline EC50
T2 construct: gene HTR3A; full-length cDNA in pcDNA3.1, transiently expressed in HEK293 cells; homopentamer (also in Xenopus oocytes)
T2 sequence (P46098 24-478 Y148A): T1 sequence (P46098 24-478 Y89A) with A66Y, Y125A

[5] = target: T3, 5-HT3 receptor (5-HT3A) (Homo sapiens, UniProt P46098, W85Y); assay: as above; type: cell-based; conditions: read-out: varenicline EC50
T3 construct: gene HTR3A; full-length cDNA in pcDNA3.1, transiently expressed in HEK293 cells; homopentamer (also in Xenopus oocytes)
T3 sequence (P46098 24-478 W85Y): T1 sequence (P46098 24-478 Y89A) with W62Y, A66Y

[6] = target: T4, 5-HT3 receptor (5-HT3A) (Homo sapiens, UniProt P46098, N123Q); assay: as above; type: cell-based; conditions: read-out: varenicline EC50
T4 construct: gene HTR3A; full-length cDNA in pcDNA3.1, transiently expressed in HEK293 cells; homopentamer (also in Xenopus oocytes)
T4 sequence (P46098 24-478 N123Q): T1 sequence (P46098 24-478 Y89A) with A66Y, N100Q

[7] = target: T5, 5-HT3 receptor (5-HT3A) (Homo sapiens, UniProt P46098, W178Y); assay: as above; type: cell-based; conditions: read-out: varenicline EC50
T5 construct: gene HTR3A; full-length cDNA in pcDNA3.1, transiently expressed in HEK293 cells; homopentamer (also in Xenopus oocytes)
T5 sequence (P46098 24-478 W178Y): T1 sequence (P46098 24-478 Y89A) with A66Y, W155Y

[8] = target: T6, 5-HT3 receptor (5-HT3A) (Homo sapiens, UniProt P46098); assay: as above; type: cell-based; conditions: read-out: varenicline EC50
T6 construct: gene HTR3A; full-length cDNA in pcDNA3.1, transiently expressed in HEK293 cells; homopentamer (also in Xenopus oocytes)
T6 sequence (P46098 24-478): T1 sequence (P46098 24-478 Y89A) with A66Y

Sequence of 5-HTBP (Q8WSF8 entry or part of it Q74R/S111E/V159L/K160T): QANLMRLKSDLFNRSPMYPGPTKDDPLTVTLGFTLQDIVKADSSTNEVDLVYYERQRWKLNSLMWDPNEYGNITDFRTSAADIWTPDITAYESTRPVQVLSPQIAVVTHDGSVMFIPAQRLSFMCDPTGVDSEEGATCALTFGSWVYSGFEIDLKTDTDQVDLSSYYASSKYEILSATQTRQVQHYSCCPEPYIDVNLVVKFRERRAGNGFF

| Compound | stoichiometry N [1] | EC50 [2] | X-ray crystal structure, 2.3 Å [3] | EC50 [4] | EC50 [5] | EC50 [6] | EC50 [7] | EC50 [8] |
| --- | --- | --- | --- | --- | --- | --- | --- | --- |
| 5-HT binding protein (5-HTBP), an acetylcholine binding protein (AChBP) from Aplysia californica engineered to bind 5-HT (natural protein) | 5 | – | – | – | – | – | – | – |
| c1cnc2cc3c(cc2n1)C1CNCC3C1 [varenicline] | – | 0.13 µM | three-dimensional structure of 5-HTBP in complex with varenicline | 9.4 µM | 2.9 µM | 26 µM | 38 µM | 0.42 µM |
